# Experimental data published in patent publication US7678390B2, “Carbon monoxide as a biomarker and therapeutic agent” (priority 1999, dated 2010).
# Tests used:
# [1] = test system: rats given lipopolysaccharide; assay: LPS-induced neutrophil influx into the airways of rats; format: in vivo, rat; conditions: LPS 3 mg/kg i.v., exposed to CO
# Experimental: Animals were anesthesized with sodium pentobarbital 24 h after LPS administration or 56 h of hyperoxia exposure. BAL (35 ml/kg) was performed 4 times with PBS (pH 7.4). Cells were pooled from the lavages and centrifuged at 1200 g for 10 min. The supernatant was discarded and cells were resuspended in PBS. Cell counts were performed using a Neubaur hemocytometer. For differential analysis, samples were cytocentrifuged and stained with Diff-Quik. Measurement of Injury Markers Rats were removed at 56 h of hyperoxia and anesthetized with sodium pentobarbital. The pleural effusion was collected by inserting an 18 gauge needle and 10 cc syringe through the diaphragm and withdrawing all fluid present in the pleural cavity. BAL was performed as described above, and the first lavage was centrifuged at 1200 g for 10 min and the supernatant was assayed for the protein albumin as determined by Bromcresol Green Kit (BCG) from Sigma (St. Louis, Mo.). […] At each time point, 1 cc of blood was drawn into a heparinized syringe, sealed and placed on ice until analyzed for oxygen tension. Arterial oxygen tension and carboxyhemoglobin were determined using a BG3 Instrumentation Laboratory Blood Gas Analyzer and Co-oximeter (Boston, Mass.). […]
# RAW 264.7 cells = assay: Nitrate/nitrite analysis of cell culture media; format: cell-based, mouse; conditions: 1 h post LPS, presence or absence of CO
# Experimental: Nitrate/Nitrite Analysis. Both analytes were measured in the cell culture media which had been ultrafiltered to remove all proteins greater than 10,000 molecular weight. All samples were than analyzed according to the assay kit protocols. (R & D, Minneapolis, Minn.). cGMP Radioimmunoassay (RIA) in macrophages. Macrophages or vascular smooth muscle cells were exposed to CO (250 ppm) or air. 20 min before the end of the exposure 1 mM of 3-isobutyl-1-methylxanthine (IBMX) was added to the cells to prevent phosphodiesterase degradation of cGMP. After 2 h of exposure, cells were removed from the exposure chamber, rinsed with PBS and then 0.5 ml of 75% EtOH was added to the plate and cells were scraped and disrupted via sonication for 5 s. Samples were then centrifuged at 2000 g for 10 min. Supernatants were transferred to fresh tubes and evaporated to dryness. cGMP concentration in the cell extracts was determined by radioimmunoassay (NEN, Boston, Mass.) according to manufacturer's instructions. cGMP was normalized to protein concentration as determined by Bradford assay. Statistical Analysis. Data are expressed as the mean±SE. Differences in measured variables between experimental and control group were assessed using Student's t tests. Statistical calculations were performed on a Macintosh personal computer using the Statview II Statistical Package (Abacus Concepts, Berkeley, Calif.). […]
structure (smiles),measurement,setting,value
"[C-]#[O+] [CO, carbon monoxide]",LPS-induced neutrophil influx into the airways,[1],significantly inhibited
same,nitrate or nitrite levels,RAW 264.7 cells,no increases
